Converted amounts (≈) assume the structure as drawn.
Assays:
Type in all cases: cell-based, Staphylococcus aureus
[1] = system: Staph aureus 1095 MRSA; experiment: MIC, microtiter broth dilution (CLSI M7-A7), Assay 1, Table 12 column A, no serum; settings: Assay 1, no serum; for MIC: Staphylococcus aureus, MRSA
How it was run: (§1)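 Broth microdilution in microtiter trays per CLSI M7-A7, interpreted per M100-S16; MIC (μg/ml) is the lowest concentration preventing macroscopically visible growth. Compounds were dissolved in DMSO at 10 mg/ml. Serum-containing runs used Mueller-Hinton Broth with 50% pooled inactivated human serum; repeated runs are reported as geometric means.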

[2] = system: Staph aureus 2811; experiment: MIC, microtiter broth dilution (CLSI M7-A7), Assay 1, Table 12 column D, no serum; settings: for MIC: Staphylococcus aureus, 2811, Staph aureus 2811, Assay 1, no serum; for MIC, column D: Staph aureus 2811, Assay 1, no serum
How it was run: as §1

[3] = system: Staph aureus 2812; experiment: MIC, microtiter broth dilution (CLSI M7-A7), Assay 1, Table 12 column E, no serum; settings: for MIC: Staphylococcus aureus, 2812, Staph aureus 2812, Assay 1, no serum; for MIC, column E: Staph aureus 2812, Assay 1, no serum
How it was run: as §1

[4] = system: Staph aureus 1146; experiment: MIC, microtiter broth dilution (CLSI M7-A7), Assay 1, Table 12 column B, no serum; settings: for MIC: Staphylococcus aureus, 1146, Staph aureus 1146, Assay 1, no serum; for MIC, column B: Staph aureus 1146, Assay 1, no serum
How it was run: as §1

[5] = system: Staph aureus 1146; experiment: MIC in Mueller-Hinton Broth with 50% pooled inactivated human serum, Assay 1, Table 12; settings: for MIC: Staphylococcus aureus, 1146, Staph aureus 1146, Assay 1, 50% human serum, read-out: MIC, column C; for MIC, column C: Staph aureus 1146, Assay 1, 50% human serum
How it was run: as §1

Row | Structure (SMILES) | MIC [1] | MIC [2] | MIC [3] | MIC [4] | MIC [5] | MIC, column A [1] | MIC, column D [2] | MIC, column E [3] | MIC, column B [4] | MIC, column C [5]
1 | COc1ccc2nccc(C(O)CC[C@@H]3CCN(C4CC5(CCCCC5)C4)C[C@@H]3C(=O)O)c2c1 (stereo partly drawn) [Example 56, (3R,4R)-4-[3-hydroxy-3-(6-methoxyquinolin-4-yl)propyl]-1-spiro[3.5]non-2-ylpiperidine-3-carboxylic acid] | 2 µg/mL (≈ 4.29 µM) | 0.5 µg/mL (≈ 1.07 µM) | 0.5 µg/mL (≈ 1.07 µM) | 0.5 µg/mL (≈ 1.07 µM) | 2 µg/mL (≈ 4.29 µM) | – | – | – | – | –
2 | COc1ccc2nccc([C@@H](O)CC[C@@H]3CCN(C4CC(c5cc(C)ccc5F)C4)C[C@@H]3C(=O)O)c2c1 (stereo partly drawn) [Example 61, (3R,4R)-1-[3-(2-fluoro-5-methylphenyl)cyclobutyl]-4-[(3S)-3-hydroxy-3-(6-methoxyquinolin-4-yl)propyl]piperidine-3-carboxylic acid] | 0.125 µg/mL (≈ 0.247 µM) | ≤ 0.0625 µg/mL | ≤ 0.0625 µg/mL | ≤ 0.0625 µg/mL | 2 µg/mL (≈ 3.95 µM) | – | – | – | – | –
3 | COc1ccc2nccc([C@@H](O)CC[C@@H]3CCN(C4CC(c5cc(C(F)(F)F)ccc5F)C4)C[C@@H]3C(=O)O)c2c1 (stereo partly drawn) [Example 62, (3R,4R)-1-{3-[2-fluoro-5-(trifluoromethyl)phenyl]cyclobutyl}-4-[(3S)-3-hydroxy-3-(6-methoxyquinolin-4-yl)propyl]piperidine-3-carboxylic acid] | 4 µg/mL (≈ 7.14 µM) | 1 µg/mL (≈ 1.78 µM) | 2 µg/mL (≈ 3.57 µM) | 2 µg/mL (≈ 3.57 µM) | 64 µg/mL (≈ 114 µM) | – | – | – | – | –
4 | COc1ccc2nccc([C@@H](O)CC[C@@H]3CCN(C4CC(c5c(F)cccc5Cl)C4)C[C@@H]3C(=O)O)c2c1 (stereo partly drawn) [Example 63, (3R,4R)-1-[3-(2-chloro-6-fluorophenyl)cyclobutyl]-4-[(3S)-3-hydroxy-3-(6-methoxyquinolin-4-yl)propyl]piperidine-3-carboxylic acid] | 0.125 µg/mL (≈ 0.237 µM) | ≤ 0.0625 µg/mL | ≤ 0.0625 µg/mL | ≤ 0.0625 µg/mL | 2 µg/mL (≈ 3.79 µM) | – | – | – | – | –
5 | COc1ccc2nccc([C@@H](O)CC[C@@H]3CCN(C4CC(c5c(F)cccc5F)C4C)C[C@@H]3C(=O)O)c2c1 (stereo partly drawn) [Example 66, (3R,4R)-1-[(2,3)-3-(2,6-difluorophenyl)-2-methylcyclobutyl]-4-[(3S)-3-hydroxy-3-(6-methoxyquinolin-4-yl)propyl]piperidine-3-carboxylic acid] | – | – | – | – | – | 1 µg/mL (≈ 1.91 µM) | 0.125 µg/mL (≈ 0.238 µM) | 0.25 µg/mL (≈ 0.477 µM) | 0.125 µg/mL (≈ 0.238 µM) | 4 µg/mL (≈ 7.62 µM)
6 | COc1ccc2nccc([C@@H](O)CC[C@@H]3CCN(C4CC(c5c(F)cccc5F)C4C)C[C@@H]3C(=O)O)c2c1 (stereo partly drawn) [Example 67, (3R,4R)-1-[(2,3)-3-(2,6-difluorophenyl)-2-methylcyclobutyl]-4-[(3S)-3-hydroxy-3-(6-methoxyquinolin-4-yl)propyl]piperidine-3-carboxylic acid] | – | – | – | – | – | 0.125 µg/mL (≈ 0.238 µM) | <=.0625 μg/ml | 0.125 µg/mL (≈ 0.238 µM) | <=.0625 μg/ml | 2 µg/mL (≈ 3.81 µM)
7 | COc1ccc2nccc(CCCC3(C(=O)O)CCN(C4CC(c5ccccc5)C4)CC3)c2c1 (stereo not drawn) [Example 93, 4-[3-(6-methoxyquinolin-4-yl)propyl]-1-(3-phenylcyclobutyl)piperidine-4-carboxylic acid] | 2 µg/mL (≈ 4.36 µM) | 2 µg/mL (≈ 4.36 µM) | 1 µg/mL (≈ 2.18 µM) | 2 µg/mL (≈ 4.36 µM) | > 64 µg/mL | – | – | – | – | –
8 | COc1ccc2nccc(C(O)CC[C@@H]3CCN(C4CC(O)(c5ccccc5)C4)C[C@@H]3C(=O)O)c2c1 (stereo partly drawn) [Example 94, (3R,4R)-4-[3-hydroxy-3-(6-methoxyquinolin-4-yl)propyl]-1-(3-hydroxy-3-phenylcyclobutyl)piperidine-3-carboxcylic acid] | – | – | – | – | – | >64 µg/mL | >64 µg/mL | >64 µg/mL | 32 µg/mL (≈ 65.2 µM) | >64 µg/mL
9 | COc1ccc2nccc(C(O)CC[C@@H]3CCN(C4CCC(c5ccc(Cl)cc5)C4)C[C@@H]3C(=O)O)c2c1 (stereo partly drawn) [Example 97, (3R,4R)-1-[3-(4-chlorophenyl)cyclopentyl]-4-[3-hydroxy-3-(6-methoxyquinolin-4-yl)propyl]piperidine-3-carboxylic acid] | 32 µg/mL (≈ 61.2 µM) | 8 µg/mL (≈ 15.3 µM) | 8 µg/mL (≈ 15.3 µM) | 2 µg/mL (≈ 3.82 µM) | > 64 µg/mL | – | – | – | – | –

More lines, main results first:

Row | MIC [1] | MIC [2] | MIC [3] | MIC [4] | MIC [5] | Structure (SMILES) | MIC, column A [1] | MIC, column D [2] | MIC, column E [3] | MIC, column B [4] | MIC, column C [5]
10 | 0.5 µg/mL (≈ 0.987 µM) | 0.25 µg/mL (≈ 0.493 µM) | 0.25 µg/mL (≈ 0.493 µM) | 0.25 µg/mL (≈ 0.493 µM) | 8 µg/mL (≈ 15.8 µM) | COc1ccc2nccc([C@@H](O)CC[C@@H]3CCN(C4CC(c5cccc(F)c5C)C4)C[C@@H]3C(=O)O)c2c1 (stereo partly drawn) [Example 57, (3R,4R)-1-[3-(3-fluoro-2-methylphenyl)cyclobutyl]-4-[(3S)-3-hydroxy-3-(6-methoxyquinolin-4-yl)propyl]piperidine-3-carboxylic acid] | – | – | – | – | –
11 | ≤ 0.0625 µg/mL | ≤ 0.0625 µg/mL | ≤ 0.0625 µg/mL | ≤ 0.0625 µg/mL | 8 µg/mL (≈ 15.2 µM) | COc1ccc2nccc([C@@H](O)CC[C@@H]3CCN(C4CC(c5cccc(Cl)c5F)C4)C[C@@H]3C(=O)O)c2c1 (stereo partly drawn) [Example 64, (3R,4R)-1-[3-(3-chloro-2-fluorophenyl)cyclobutyl]-4-[(3S)-3-hydroxy-3-(6-methoxyquinolin-4-yl)propyl]piperidine-3-carboxylic acid] | – | – | – | – | –
12 | 1 µg/mL (≈ 1.9 µM) | 0.25 µg/mL (≈ 0.474 µM) | 1 µg/mL (≈ 1.9 µM) | 0.25 µg/mL (≈ 0.474 µM) | 16 µg/mL (≈ 30.4 µM) | COc1ccc2nccc([C@@H](O)CC[C@@H]3CCN(C4CC(c5ccc(Cl)cc5F)C4)C[C@@H]3C(=O)O)c2c1 (stereo partly drawn) [Example 65, (3R,4R)-1-[3-(4-chloro-2-fluorophenyl)cyclobutyl]-4-[(3S)-3-hydroxy-3-(6-methoxyquinolin-4-yl)propyl]piperidine-3-carboxylic acid] | – | – | – | – | –
13 | 0.25 µg/mL (≈ 0.459 µM) | ≤ 0.0625 µg/mL | ≤ 0.0625 µg/mL | ≤ 0.0625 µg/mL | 4 µg/mL (≈ 7.34 µM) | COc1ccc2nccc([C@@H](O)CC[C@@H]3CCN(C4CC(c5c(F)ccc(Cl)c5F)C4)C[C@@H]3C(=O)O)c2c1 (stereo partly drawn) [Example 68, (3R,4R)-1-[3-(3-chloro-2,6-difluorophenyl)cyclobutyl]-4-[(3S)-3-hydroxy-3-(6-methoxyquinolin-4-yl)propyl]piperidine-3-carboxylic acid] | – | – | – | – | –
14 | 0.5 µg/mL (≈ 0.946 µM) | 0.125 µg/mL (≈ 0.236 µM) | 0.25 µg/mL (≈ 0.473 µM) | 0.125 µg/mL (≈ 0.236 µM) | 2 µg/mL (≈ 3.78 µM) | COc1ccc2nccc([C@@H](O)CC[C@@H]3CCN(C4CC(c5c(F)cc(F)cc5F)C4)C[C@@H]3C(=O)O)c2c1 (stereo partly drawn) [Example 69, (3R,4R)-4-[(3S)-3-hydroxy-3-(6-methoxyquinolin-4-yl)propyl]-1-[3-(2,4,6-trifluorophenyl)cyclobutyl]piperidine-3-carboxylic acid] | – | – | – | – | –
15 | ≤ 0.0625 µg/mL | ≤ 0.0625 µg/mL | ≤ 0.0625 µg/mL | ≤ 0.0625 µg/mL | 8 µg/mL (≈ 16.7 µM) | COc1ccc2ncc(Cl)c(CCCC3(C(=O)O)CCN(C4CC(c5ccccc5)C4)C3)c2c1 (stereo not drawn) [Example 86, 3-[3-(3-chloro-6-methoxyquinolin-4-yl)propyl]-1-(3-phenylcyclobutyl)pyrrolidine-3-carboxylic acid] | – | – | – | – | –
16 | ≤ 0.0625 µg/mL | ≤ 0.0625 µg/mL | ≤ 0.0625 µg/mL | ≤ 0.0625 µg/mL | 8 µg/mL (≈ 15.5 µM) | COc1ccc2ncc(Cl)c(CCCC3(C(=O)O)CCN(C4CC(c5c(F)cccc5F)C4)C3)c2c1 (stereo not drawn) [Example 87, 3-[3-(3-chloro-6-methoxyquinolin-4-yl)propyl]-1-[3-(2,6-difluorophenyl)cyclobutyl] pyrrolidine-3-carboxylic acid] | – | – | – | – | –
17 | 1 µg/mL (≈ 2.03 µM) | 0.25 µg/mL (≈ 0.508 µM) | 0.25 µg/mL (≈ 0.508 µM) | 0.5 µg/mL (≈ 1.02 µM) | 4 µg/mL (≈ 8.12 µM) | COc1ccc2nccc(C(O)CC[C@@H]3CCN(C4CC(c5ccc(F)cc5)C4)C[C@@H]3C(=O)O)c2c1 (stereo partly drawn) [Example 88, (3R,4R)-1-[3-(4-fluorophenyl)cyclobutyl]-4-[3-hydroxy-3-(6-methoxyquinolin-4-yl)propyl]piperidine-3-carboxylic acid] | – | – | – | – | –
18 | < 0.0625 µg/mL | < 0.0625 µg/mL | < 0.0625 µg/mL | < 0.0625 µg/mL | 0.5 µg/mL (≈ 1.02 µM) | COc1ccc2nccc([C@@H](O)CC[C@@H]3CCN(C4CC(c5ccccc5F)C4)C[C@@H]3C(=O)O)c2c1 (stereo partly drawn) [Example 89, (3R,4R)-1-[3-(2-fluorophenyl)cyclobutyl]-4-[(3S)-3-hydroxy-3-(6-methoxyquinolin-4-yl)propyl]piperidine-3-carboxylic acid] | – | – | – | – | –
19 | < 0.0625 µg/mL | < 0.0625 µg/mL | < 0.0625 µg/mL | < 0.0625 µg/mL | 1 µg/mL (≈ 2.03 µM) | COc1ccc2nccc([C@H](O)CC[C@@H]3CCN(C4CC(c5ccccc5F)C4)C[C@@H]3C(=O)O)c2c1 (stereo partly drawn) [Example 90, (3R,4R)-1-[3-(2-fluorophenyl)cyclobutyl]-4-[(3R)-3-hydroxy-3-(6-methoxyquinolin-4-yl)propyl]piperidine-3-carboxylic acid] | – | – | – | – | –
20 | 0.5 µg/mL (≈ 1.02 µM) | 0.25 µg/mL (≈ 0.508 µM) | 0.25 µg/mL (≈ 0.508 µM) | 0.25 µg/mL (≈ 0.508 µM) | 8 µg/mL (≈ 16.2 µM) | COc1ccc2nccc([C@H](O)CC[C@@H]3CCN(C4CC(c5cccc(F)c5)C4)C[C@@H]3C(=O)O)c2c1 (stereo partly drawn) [Example 91, (3R,4R)-1-[3-(3-fluorophenyl)cyclobutyl]-4-[(3R)-3-hydroxy-3-(6-methoxyquinolin-4-yl)propyl]piperidine-3-carboxylic acid] | – | – | – | – | –
21 | 0.125 µg/mL (≈ 0.254 µM) | ≤ 0.0625 µg/mL | ≤ 0.0625 µg/mL | ≤ 0.0625 µg/mL | 0.5 µg/mL (≈ 1.02 µM) | COc1ccc2nccc([C@@H](O)CC[C@@H]3CCN(C4CC(c5cccc(F)c5)C4)C[C@@H]3C(=O)O)c2c1 (stereo partly drawn) [Example 92, (3R,4R)-1-[3-(3-fluorophenyl)cyclobutyl]-4-[(3S)-3-hydroxy-3-(6-methoxyquinolin-4-yl)propyl]piperidine-3-carboxylic acid] | – | – | – | – | –

Source: patent US20080280879A1, “SUBSTITUTED HETEROCYCLIC DERIVATIVES AND THEIR PHARMACEUTICAL USE AND COMPOSITIONS” (priority 2007, published 2008)
